From patent publication US6656492B2, “Quick disintegrating tablet in buccal cavity and manufacturing method thereof” (Yamanouchi Pharmaceutical Co., Ltd., priority 2000, dated 2003)
Counter-ions that a name gives are not always drawn.

Assay: Fluidity evaluation: angle of repose determination (fixed base cone method)
Format: physicochemical
Settings: for fluidity (judgement in words): fixed base cone method
Text: The term “fluidity” in the present Specification means adhesion and cohesion between particles or adhesion of a particle with a solid wall surface. Said “fluidity” can be put into numerical terms by, for instance, methods of determining the angle of repose of a powder. Methods of determining the angle of repose are known to those in the field, but the fixed base cone method by funnel is an example (for instance, “Yakuzaigaku,” Ryuichi Arita, Hitoshi Sezaki, editors (Kodansha Scientific), p. 182). […] R. L. Jr., Chemical Engineering, Jan. 18, p. 166, Table II, 1965).
[Fluidity evaluation: angle of repose determination] A funnel for pouring powder is placed above a table for determination of the angle of repose. The angle formed by the surface of a layer of accumulated powder and a horizontal plane when the powder is poured so that none remains in the funnel is determined and this angle (°) serves as the angle of repose.

O=C([O-])[O-].[Ca+2] [calcium carbonate undiluted powder, calcium carbonate]
angle of repose (determination performed with a vibrator): 50 °
fluidity (judgement in words): fluidity was not good

NC(N)=Nc1nc(CSCCC(N)=NS(N)(=O)=O)cs1 [famotidine undiluted powder, famotidine]
fluidity (judgement in words): extremely inferior fluidity

Nc1c(Br)cc(Br)cc1CN[C@H]1CC[C@H](O)CC1 [amboxol hydrochloride, ambroxol hydrochloride]
fluidity (judgement in words): could not be fed by funnel even using the vibrator
